Values of other authors as cited in US20080269311A1, “Combination of Dpp-Iv Inhibitors and Compounds Modulating 5-Ht3 and/or 5-Ht4 Receptors” (priority 2004, published 2008).

Biological target: T1, 5-HT3 receptor subtype (Homo sapiens, UniProt P46098)
T1 sequence (P46098 24-478): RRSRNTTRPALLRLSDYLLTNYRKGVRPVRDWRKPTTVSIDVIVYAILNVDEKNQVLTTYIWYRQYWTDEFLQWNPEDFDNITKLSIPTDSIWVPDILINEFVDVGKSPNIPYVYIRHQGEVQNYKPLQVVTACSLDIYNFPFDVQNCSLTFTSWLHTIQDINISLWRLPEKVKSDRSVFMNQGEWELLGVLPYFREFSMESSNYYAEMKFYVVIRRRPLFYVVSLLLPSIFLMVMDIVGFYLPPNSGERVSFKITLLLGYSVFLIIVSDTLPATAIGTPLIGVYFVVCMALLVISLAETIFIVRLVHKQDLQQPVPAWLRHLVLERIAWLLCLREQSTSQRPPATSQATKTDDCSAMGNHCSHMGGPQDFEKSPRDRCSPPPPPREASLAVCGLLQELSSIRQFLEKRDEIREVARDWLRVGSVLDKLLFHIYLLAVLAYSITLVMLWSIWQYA

CCCCCNC(=N)NN=Cc1c[nH]c2ccc(OC)cc12 [Tegaserod, 3-(5-methoxy-1H-indol-3-yl-methylene)-N-pentylcarbazimidamide]
binding to or stimulation of the 5-HT3 receptor subtype (selectivity): does neither bind to nor stimulate
